The source of these data is BindingDB's records for patent US10023557 (LIFESCI PHARMACEUTICALS, INC., 2018).

A word on the IC50: it is the midpoint of a concentration-inhibition curve.

The target of this assay is Plasma kallikrein (Homo sapiens, UniProt P03952). Briefly: In Vitro Enzyme Inhibition of hPK. As to conditions: pH 7.5. As to the method: A 10 mM solution of the test compound was made in DMSO. […] A control tube containing only DMSO is included. […] 50 μL was removed from this mixture and placed into duplicate wells on a Microfluor 1Black U-bottom microtiter plate (Thermo Scientific). This plate was incubated for 5 minutes at 37° C. To each well, 50 μL of pre-warmed 2×PFR-AMC was added to start the enzymatic reaction. Cleavage of PFR-AMC was monitored in a Biotek Synergy H4 reader set at 37° C. Readings are taken every 43 seconds for 1 hour. […] The IC50 is calculated using the Gen5 (Biotek Instruments).
Plasma kallikrein, sequence (P03952 20-390 limits assumed): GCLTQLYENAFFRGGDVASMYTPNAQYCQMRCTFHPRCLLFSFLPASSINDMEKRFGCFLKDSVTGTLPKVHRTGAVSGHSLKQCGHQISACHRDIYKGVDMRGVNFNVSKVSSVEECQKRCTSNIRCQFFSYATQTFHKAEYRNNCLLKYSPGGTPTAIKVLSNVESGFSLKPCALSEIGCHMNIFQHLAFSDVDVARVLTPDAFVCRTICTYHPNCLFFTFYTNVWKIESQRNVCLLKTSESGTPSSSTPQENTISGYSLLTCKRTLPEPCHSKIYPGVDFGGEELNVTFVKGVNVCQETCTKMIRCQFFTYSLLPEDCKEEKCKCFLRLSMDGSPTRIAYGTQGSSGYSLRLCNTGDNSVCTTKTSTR
Plasma kallikrein, sequence (P03952 391-638 limits assumed): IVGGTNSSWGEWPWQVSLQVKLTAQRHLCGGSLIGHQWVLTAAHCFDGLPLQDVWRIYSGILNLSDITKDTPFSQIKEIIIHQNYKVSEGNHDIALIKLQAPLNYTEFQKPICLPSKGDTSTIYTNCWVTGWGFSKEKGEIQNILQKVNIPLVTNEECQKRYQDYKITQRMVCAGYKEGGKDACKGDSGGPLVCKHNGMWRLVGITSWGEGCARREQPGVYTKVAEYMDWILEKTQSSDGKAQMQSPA

`Cc1nc(N)ccc1CNC(=O)c1ccnc(CC2=CC3C=C(Cl)C=NC3C=C2)c1` (stereo unspecified) [US10023557, Example 39]: the half-inhibitory concentration (IC50) was less than 100 nM.
